Test results: patent US20250099415A1, “Methods for Inhibiting the Progression of Oxidative Retinal Disease” (BioJiva LLC, priority 2021, published 2025)

Tested on: macular degeneration patients
Test: Clinical study of geographic atrophy progression in macular degeneration patients, treated versus placebo cohort
Assay type: in vivo, human
Procedure: This example illustrates the reduction in the rate of macular degeneration progression in a cohort of patients treated with deuterated docosahexaenoic acid ethyl ester similar to that of Example 1, as compared to a cohort of placebo patients. Specifically, the treated cohort […]. The patients are maintained on this dosing regimen throughout the clinical study. Periodic measurements of further geographic atrophy development are obtained.
Dosing is continued for 6 or 12, or 18 or 24 months. At that time, the average extent of geographic atrophy progression is measured for each cohort. The efficacy of the treatment protocol is evaluated by comparing the extent of geographic atrophy progression in a treated population against a placebo population. […]
Alternatively, the rate of disease progression for an individual patient can be assessed by the following: • a) determine the rate of disease progression for said individual patient by measuring the extent of geographic atrophy in the patient's retina at the start of therapy and at 6, 12, 18 or 24 months post start of therapy and assigning a […] value “D” to that differential; • b) determine the average rate of disease progression for a cohort of patients treated with placebo (safflower oil) by measuring the extent of geographic atrophy in each of the patient's retina at the start of therapy and at 6, 12, 18 or 24 months post start of therapy, determining the difference between the extent of atrophy at the start of therapy and at the later time point, and then obtaining an average for that differential and assigning a second value designated as “E” to that average differential; • c) calculating the difference between D and E and assign “F” to that value (e.g, E−D=F); • d) assign a positive value to “F” if E is greater than D; • e) assign a negative value to “F” if E is less than D; and • f) divide F by E and multiply by 100 [(F/E)×100]. […]

[1] = 6, 12, 18 or 24 months post start of therapy, placebo safflower oil

Substance: Deuterated Docosahexaenoic Acid Ethyl Ester
- reduction in the rate of disease progression (extent of geographic atrophy progression, treated population against placebo population) (250 mg/day, dosing for 6 or 12, or 18 or 24 months, versus safflower oil placebo cohort): statistically significant reduction in the rate of disease progression
- percent reduction in geographic atrophy, individual treated patient vs placebo cohort [(F/E)×100] [1]: positive percent reduction in geographic atrophy that is statistically significant
- percent reduction in geographic atrophy, treated cohort vs placebo cohort [(C/B)×100] [1]: positive percent reduction in geographic atrophy that is statistically significant
